Reference: patent US20230183193A1, “4-DIFLUOROMETHYL BENZOYL AMIDES WITH HERBICIDAL ACTION” (BAYER CROPSCIENCE AKTIENGESELLSCHAFT, priority 2017, published 2023)

Experiments:
Type in all cases: in vivo
LOLMU = test: Pre-emergence herbicidal action, LOLMU; settings: dosage 80 g/ha, Table L
Viola tricolor [1] = test: Pre-emergence herbicidal action, VIOTR; settings: for herbicidal activity VIOTR: dosage 320 g/ha, scored visually after 3 weeks vs untreated controls
How it was run: (§1)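 Percent herbicidal activity rated by eye 3 weeks after pre-emergence soil-surface application, compared with untreated pots. Seeds sat under sandy loam; sprays carried 0.2% wetting agent.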

Amaranthus retroflexus [2] = test: Pre-emergence herbicidal action, AMARE; settings: for herbicidal activity AMARE: dosage 320 g/ha, scored visually after 3 weeks vs untreated controls; for Herbicidal efficacy against AMARE: comparison with WO 2011035874, Table H
How it was run: as §1

Abutilon theophrasti [3] = test: Pre-emergence herbicidal action, ABUTH; settings: for herbicidal activity ABUTH: dosage 320 g/ha, scored visually after 3 weeks vs untreated controls; for Herbicidal efficacy against ABUTH: comparison with WO 2011035874, Table G
How it was run: as §1

Abutilon theophrasti [4] = test: Post-emergence herbicidal action, ABUTH; settings: 80 g/ha; for herbicidal activity ABUTH: Table D
How it was run: (§2)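 Greenhouse-grown weeds in sandy loam, treated at the one-leaf stage 2 to 3 weeks after sowing with WP or EC formulations sprayed as aqueous suspension/emulsion at 600 to […] water plus 0.2% wetting agent. Visual scoring after about 3 weeks versus untreated controls, 0% (like control) to 100% (plants dead).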

Matricaria inodora [5] = test: Pre-emergence herbicidal action, MATIN; settings: dosage 320 g/ha, scored visually after 3 weeks vs untreated controls
How it was run: as §1

Amaranthus retroflexus [6] = test: Post-emergence herbicidal action, AMARE; settings: 80 g/ha; for herbicidal activity AMARE: Table D
How it was run: as §2

Avena fatua [7] = test: Post-emergence herbicidal action, AVEFA
How it was run: as §2

Stellaria media [8] = test: Post-emergence herbicidal action, STEME; settings: 80 g/ha; for Herbicidal activity STEME: Table D
How it was run: as §2

Setaria viridis [9] = test: Post-emergence herbicidal action, SETVI
How it was run: as §2

Avena fatua [10] = test: Pre-emergence herbicidal action, AVEFA
How it was run: as §1

Alopecurus myosuroides = test: Pre-emergence herbicidal action, ALOMY
How it was run: as §1

Polygonum convolvulus = test: Pre-emergence herbicidal action, POLCO
Text: (§3) 1. Pre-Emergence Herbicidal Action Against Harmful Plants Seeds of monocotyledonous and dicotyledonous weed plants and crop plants are laid out in sandy loam soil in wood-fiber pots and covered with soil. The compounds of the invention, formulated in the form of wettable powders (WP) or as emulsion concentrates (EC), are then applied to the surface of the covering soil in the form of an aqueous suspension or emulsion at a water application rate equating to […], with addition of 0.2% wetting agent. After the treatment, the pots are placed in a greenhouse and kept under good growth conditions for the trial plants. The damage to the test plants is scored visually after a test period of 3 weeks by comparison with untreated controls (herbicidal activity in percent (%): 100% activity=the plants have died, 0% activity=like control plants).
(§4) For comparison, the herbicidal activity of numerous compounds according to the invention was tested with the structurally closest compounds known from the documents WO 2011/035874, WO 2012/028579 and WO 2012/126932, by the pre- and post-emergence method.

Cyperus serotinus = test: Pre-emergence herbicidal action, CYPES; settings: for herbicidal activity CYPES: dosage 320 g/ha, scored visually after 3 weeks vs untreated controls
How it was run: as §1

Veronica persica [11] = test: Post-emergence herbicidal action, VERPE
Method: (§5) Seeds of monocotyledonous and dicotyledonous weed and crop plants are laid out in sandy loam soil in wood-fiber pots, covered with soil and cultivated in a greenhouse under good growth conditions. 2 to 3 weeks after sowing, the test plants are treated at the one-leaf stage. The compounds of the invention, formulated in the form of wettable powders (WP) or as emulsion concentrates (EC), are then sprayed onto the green parts of the plants in the form of an aqueous suspension or emulsion at a water application rate equating to […], with addition of 0.2% wetting agent. After the test plants have been left to stand in the greenhouse under optimal growth conditions for about 3 weeks, the action of the preparations is assessed visually in comparison to untreated controls (herbicidal action in percent (%): 100% activity=the plants have died, 0% activity=like control plants). […] At the same time, inventive compounds leave Gramineae crops such as barley, wheat, rye, millet/sorghum, corn or rice virtually undamaged when applied post-emergence, even at high active compound dosages. In addition, some substances are also harmless to dicotyledonous crops such as soya, cotton, oilseed rape, sugar beet or potatoes. Some of the compounds according to the invention have high selectivity and are therefore suitable for controlling unwanted vegetation in agricultural crops by the post-emergence method. The data of Tables C and D below illustrate, in an exemplary manner, the […] herbicidal action of the compounds according to the invention, the herbicidal activity being stated in percent.
as §4

Pharbitis purpureum = test: Post-emergence herbicidal action, PHBPU; settings: 80 g/ha; for Herbicidal activity PHBPU: Table D
How it was run: as §2

Stellaria media [12] = test: Pre-emergence herbicidal action, STEME; settings: for Herbicidal activity STEME: dosage 320 g/ha, scored visually after 3 weeks vs untreated controls; for Herbicidal efficacy against STEME: comparison with WO 2011035874, Table H
How it was run: as §1

Viola tricolor [13] = test: Post-emergence herbicidal action, VIOTR; settings: for herbicidal activity VIOTR: Table D
How it was run: as §2

Setaria viridis [14] = test: Pre-emergence herbicidal action, SETVI; settings: for herbicidal activity SETVI: dosage 320 g/ha, scored visually after 3 weeks vs untreated controls
How it was run: as §1

Matricaria inodora [15] = test: Post-emergence herbicidal action, MATIN
Method: as §5, §4

ECHCG [16] = test: Post-emergence herbicidal action, ECHCG; settings: 80 g/ha, Table C
How it was run: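 Weed and crop plants grown in sandy loam in the greenhouse, treated at the one-leaf stage 2–3 weeks after sowing. Damage scored visually after about 3 weeks vs untreated controls (0% = control, 100% = dead).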

Veronica persica [17] = test: Pre-emergence herbicidal action, VERPE; settings: comparison with WO 2011035874, Table H
Text: as §3, §4

ECHCG [18] = test: Pre-emergence herbicidal action, ECHCG; settings: comparison with WO 2011035874, Table G
Text: as §3

[19] = dosage 320 g/ha, scored visually after 3 weeks vs untreated controls
[20] = 80 g/ha, comparison with WO 2011035874, Table H
[21] = 320 g/ha, comparison with WO 2011035874, Table H
[22] = comparison with WO 2011035874, Table E
[23] = comparison with WO2011035874, Table F
[24] = 80 g/ha, comparison with WO 2011035874, Table G
[25] = 320 g/ha, comparison with WO 2011035874, Table G
[26] = 80 g/ha, comparison with WO 2011035874, Table E
[27] = 80 g/ha, comparison with WO2011035874, Table F

Cc1nnc(NC(=O)c2ccc(C(F)F)c([S+](C)[O-])c2C)o1 (stereo not drawn) [Example 7-2]
70: Herbicidal efficacy against AVEFA (Avena fatua [7]; dosage 20 g/ha, Table M) | Herbicidal efficacy against AVEFA (Avena fatua [10]; dosage 80 g/ha, Table L) | Herbicidal efficacy against MATIN (Matricaria inodora [15]; dosage 20 g/ha, Table M)
10: Herbicidal efficacy against LOLMU (LOLMU)
80: Herbicidal efficacy against ALOMY (Alopecurus myosuroides; dosage 80 g/ha, Table L) | Herbicidal efficacy against CYPES (Cyperus serotinus; dosage 80 g/ha, Table L)
100%: herbicidal activity VIOTR (Viola tricolor [1]) | herbicidal activity AMARE (Amaranthus retroflexus [2]) | herbicidal activity ABUTH (Abutilon theophrasti [3]) | herbicidal activity ABUTH (Abutilon theophrasti [4]) | herbicidal activity AMARE (Amaranthus retroflexus [6]) | Herbicidal activity STEME (Stellaria media [8]) | herbicidal activity SETVI (Setaria viridis [9]; 80 g/ha, Table C) | herbicidal activity VIOTR (Viola tricolor [13]; 80 g/ha) | herbicidal activity SETVI (Setaria viridis [14])
80%: Herbicidal activity STEME (Stellaria media [12])
30: Herbicidal efficacy against POLCO (Polygonum convolvulus; dosage 80 g/ha, Table L)
90: Herbicidal efficacy against SETVI (Setaria viridis [14]; dosage 80 g/ha, Table L)
100: Herbicidal efficacy against VIOTR (Viola tricolor [1]; dosage 80 g/ha, Table L) | Herbicidal efficacy against SETVI (Setaria viridis [9]; dosage 20 g/ha, Table M) | Herbicidal efficacy against VERPE (Veronica persica [11]; dosage 20 g/ha, Table M) | Herbicidal efficacy against VIOTR (Viola tricolor [13]; dosage 20 g/ha, Table M)
90%: herbicidal activity MATIN (Matricaria inodora [5]) | herbicidal activity AVEFA (Avena fatua [7]; 80 g/ha, Table C) | herbicidal activity AVEFA (Avena fatua [10]; [19]) | herbicidal activity ALOMY (Alopecurus myosuroides; [19]) | herbicidal activity CYPES (Cyperus serotinus) | Herbicidal activity PHBPU (Pharbitis purpureum) | Herbicidal activity ECHCG (ECHCG [16])

CSc1c(C(F)F)ccc(C(=O)Nc2nonc2C)c1C [Example 5-1]
60%: Herbicidal efficacy against AVEFA (Avena fatua [10]; [25])
40%: Herbicidal efficacy against ALOMY (Alopecurus myosuroides; [25]) | Herbicidal efficacy against MATIN (Matricaria inodora [15]; [26]) | Herbicidal efficacy against MATIN (Matricaria inodora [15]; [27])
100%: Herbicidal efficacy against VIOTR (Viola tricolor [1]; [20]) | Herbicidal efficacy against VIOTR (Viola tricolor [1]; [21]) | herbicidal activity VIOTR (Viola tricolor [1]) | Herbicidal efficacy against AMARE (Amaranthus retroflexus [2]; 80 g/ha) | Herbicidal efficacy against AMARE (Amaranthus retroflexus [2]; 320 g/ha) | herbicidal activity AMARE (Amaranthus retroflexus [2]) | Herbicidal efficacy against ABUTH (Abutilon theophrasti [3]; 80 g/ha) | Herbicidal efficacy against ABUTH (Abutilon theophrasti [3]; 320 g/ha) | herbicidal activity ABUTH (Abutilon theophrasti [3]) | herbicidal activity ABUTH (Abutilon theophrasti [4]) | Herbicidal efficacy against ABUTH (Abutilon theophrasti [4]; [22]) | Herbicidal efficacy against ABUTH (Abutilon theophrasti [4]; [23]) | herbicidal activity MATIN (Matricaria inodora [5]) | Herbicidal efficacy against VERPE (Veronica persica [17]; 80 g/ha) | Herbicidal efficacy against VERPE (Veronica persica [17]; 320 g/ha) | Herbicidal activity STEME (Stellaria media [8]) | Herbicidal efficacy against STEME (Stellaria media [8]; [22]) | Herbicidal efficacy against STEME (Stellaria media [8]; [23]) | Herbicidal efficacy against POLCO (Polygonum convolvulus; [21]) | Herbicidal efficacy against VERPE (Veronica persica [11]; [26]) | Herbicidal efficacy against ECHCG (ECHCG [18]; 320 g/ha) | herbicidal activity VIOTR (Viola tricolor [13]; 80 g/ha) | Herbicidal efficacy against VIOTR (Viola tricolor [13]; [26]) | Herbicidal efficacy against VIOTR (Viola tricolor [13]; [27]) | Herbicidal efficacy against SETVI (Setaria viridis [14]; [25]) | herbicidal activity SETVI (Setaria viridis [14])
80%: herbicidal activity AMARE (Amaranthus retroflexus [6]) | Herbicidal efficacy against AMARE (Amaranthus retroflexus [6]; [22]) | Herbicidal efficacy against POLCO (Polygonum convolvulus; [20]) | Herbicidal efficacy against CYPES (Cyperus serotinus; [25]) | herbicidal activity CYPES (Cyperus serotinus) | Herbicidal efficacy against ECHCG (ECHCG [18]; 80 g/ha) | Herbicidal efficacy against STEME (Stellaria media [12]; 80 g/ha) | Herbicidal efficacy against SETVI (Setaria viridis [14]; [24])
30%: Herbicidal efficacy against AVEFA (Avena fatua [10]; [24]) | Herbicidal efficacy against ALOMY (Alopecurus myosuroides; [24])
50%: Herbicidal efficacy against CYPES (Cyperus serotinus; [24])
90%: Herbicidal activity PHBPU (Pharbitis purpureum) | Herbicidal efficacy against PHBPU (Pharbitis purpureum; [22]) | Herbicidal efficacy against PHBPU (Pharbitis purpureum; [23]) | Herbicidal efficacy against STEME (Stellaria media [12]; 320 g/ha) | Herbicidal activity STEME (Stellaria media [12])
